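1) Cells in 96-well plates. 2) Compound, 48 h, 5 concentrations. 3) Linear interpolation between surrounding doses. 4) Unreached endpoint = highest concentration. TGI: total growth inhibition.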
How the values were obtained:
Assay in all cases: NCI-60 cell line screen, 48 h
DLD-1 colon = system: DLD-1 colon
786-0 renal = system: 786-0 renal
COLO 205 colon = system: COLO 205 colon
M19-MEL melanoma = system: M19-MEL melanoma
XF 498 CNS = system: XF 498 CNS
DMS 114 small cell lung = system: DMS 114 small cell lung
DMS 273 small cell lung = system: DMS 273 small cell lung
KM20L2 colon = system: KM20L2 colon
A549 NSCLC = system: A549 NSCLC
NCI-H460 lung = system: NCI-H460 lung
M14 melanoma = system: M14 melanoma
MOLT-4 leukemia = system: MOLT-4 leukemia
SNB-78 CNS = system: SNB-78 CNS
LXFL 529 NSCLC = system: LXFL 529 NSCLC
RXF-631 renal = system: RXF-631 renal

C=C1C[C@]23C[C@@]1(O)CC[C@H]2[C@@]12C=C[C@H](O)[C@@](C)(C(=O)O1)[C@H]2[C@@H]3C(=O)O
TGI (DLD-1 colon): > 100 µM | TGI (786-0 renal): > 100 µM | TGI (COLO 205 colon): > 100 µM | TGI (M19-MEL melanoma): > 100 µM | TGI (XF 498 CNS): > 100 µM | TGI (DMS 114 small cell lung): > 100 µM | TGI (DMS 273 small cell lung): > 100 µM | TGI (KM20L2 colon): > 100 µM | TGI (A549 NSCLC): > 100 µM | TGI (NCI-H460 lung): > 100 µM | TGI (M14 melanoma): > 100 µM | TGI (MOLT-4 leukemia): > 100 µM | TGI (SNB-78 CNS): > 100 µM

COS(=O)c1cc(Cl)cc(Cl)c1O (stereo not drawn)
TGI (DLD-1 colon): > 100 µM | TGI (M19-MEL melanoma): > 100 µM | TGI (XF 498 CNS): > 100 µM | TGI (DMS 114 small cell lung): > 100 µM | TGI (NCI-H460 lung): > 100 µM | TGI (M14 melanoma): > 100 µM | TGI (LXFL 529 NSCLC): > 100 µM | TGI (MOLT-4 leukemia): > 100 µM

NC(=O)CC(Nc1ncc2c(n1)-c1ccccc1OC2)C(=O)O (stereo not drawn)
TGI (786-0 renal): > 100 µM | TGI (COLO 205 colon): > 100 µM | TGI (A549 NSCLC): > 100 µM | TGI (NCI-H460 lung): > 100 µM | TGI (M14 melanoma): > 100 µM | TGI (MOLT-4 leukemia): > 100 µM

CC(C)(C)OC(=O)N1C(OP(=O)(Oc2ccccc2)Oc2ccccc2)=COc2cccnc21
TGI (786-0 renal): > 100 µM | TGI (COLO 205 colon): > 100 µM | TGI (A549 NSCLC): > 100 µM | TGI (NCI-H460 lung): 94 µM | TGI (M14 melanoma): > 100 µM | TGI (MOLT-4 leukemia): 43.3 µM

CCN(CC)CCCNc1ccc2nnn3c4ccc(O)cc4c(=O)c1c23
TGI (DLD-1 colon): 19 µM | TGI (786-0 renal): 19.6 µM | TGI (COLO 205 colon): 19.5 µM | TGI (M19-MEL melanoma): 26.8 µM | TGI (XF 498 CNS): 28.9 µM | TGI (DMS 114 small cell lung): 25.1 µM | TGI (DMS 273 small cell lung): 17.9 µM | TGI (KM20L2 colon): 18.7 µM | TGI (A549 NSCLC): 10.3 µM | TGI (NCI-H460 lung): 9.13 µM | TGI (M14 melanoma): 23.6 µM | TGI (RXF-631 renal): 17.4 µM | TGI (LXFL 529 NSCLC): 21.2 µM | TGI (MOLT-4 leukemia): 18.5 µM | TGI (SNB-78 CNS): 32.5 µM

O=[As](O)(O)c1cc(N=Nc2ccc(-c3ccc(N=Nc4cc([As](=O)(O)O)c(O)cc4O)cc3)cc2)c(O)cc1O
TGI (DLD-1 colon): > 59.2 µM | TGI (786-0 renal): > 100 µM | TGI (COLO 205 colon): > 100 µM | TGI (M19-MEL melanoma): > 100 µM | TGI (DMS 114 small cell lung): > 100 µM | TGI (DMS 273 small cell lung): > 100 µM | TGI (KM20L2 colon): > 100 µM | TGI (A549 NSCLC): > 100 µM | TGI (NCI-H460 lung): > 100 µM | TGI (M14 melanoma): > 100 µM | TGI (RXF-631 renal): > 100 µM | TGI (LXFL 529 NSCLC): > 100 µM | TGI (MOLT-4 leukemia): > 100 µM | TGI (SNB-78 CNS): > 100 µM

O=C(NCCNCCO)N/N=C/c1ccc(Cl)cc1
TGI (786-0 renal): > 100 µM | TGI (COLO 205 colon): > 100 µM | TGI (A549 NSCLC): > 100 µM | TGI (NCI-H460 lung): > 100 µM | TGI (M14 melanoma): > 100 µM | TGI (MOLT-4 leukemia): > 100 µM

CCOC(=O)C(Cc1ccccc1)(Cc1ccc(O)cn1)NC(=O)c1ccccc1 (stereo not drawn)
TGI (786-0 renal): 82.6 µM | TGI (COLO 205 colon): 68.4 µM | TGI (A549 NSCLC): > 100 µM | TGI (NCI-H460 lung): 99.2 µM | TGI (M14 melanoma): 40.5 µM | TGI (MOLT-4 leukemia): > 100 µM

N#Cc1c2c(c(N3CCOCC3)n3c1nc1ccccc13)CCCC2
TGI (786-0 renal): 41.3 µM | TGI (COLO 205 colon): 37.5 µM | TGI (A549 NSCLC): 61.7 µM | TGI (NCI-H460 lung): 56.4 µM | TGI (M14 melanoma): 44.4 µM | TGI (MOLT-4 leukemia): 41.5 µM

CN1C2CC(=O)CC1[C@@H]1OC(c3ccccc3)O[C@H]21 (stereo partly drawn)
TGI (786-0 renal): > 100 µM | TGI (COLO 205 colon): > 100 µM | TGI (A549 NSCLC): > 100 µM | TGI (NCI-H460 lung): > 100 µM | TGI (M14 melanoma): > 100 µM | TGI (MOLT-4 leukemia): > 100 µM

CCOC(=O)C(C(=O)Cc1ccccc1)c1ccccc1 (stereo not drawn)
TGI (DLD-1 colon): > 100 µM | TGI (786-0 renal): > 100 µM | TGI (COLO 205 colon): > 100 µM | TGI (M19-MEL melanoma): > 100 µM | TGI (XF 498 CNS): > 100 µM | TGI (KM20L2 colon): > 100 µM | TGI (A549 NSCLC): > 100 µM | TGI (NCI-H460 lung): > 100 µM | TGI (M14 melanoma): > 100 µM | TGI (LXFL 529 NSCLC): > 100 µM | TGI (MOLT-4 leukemia): > 100 µM | TGI (SNB-78 CNS): > 100 µM
